Measurements published in article PMC11600510 (Journal of Chemical Information and Modeling, 2024).

Columns and labels:
SARS-CoV-2 = format: cell-based
CYP1A2 = molecular target: T1, CYP1A2 (Homo sapiens, UniProt P05177); assay: Isozyme-specific CYP450 inhibition; format: in vitro ADME; conditions: recombinant human CYP1A2 with CYP450 reductase (Baculosomes), probe fluorescent substrate (not named)
T1 construct: purchased Thermo Fisher Scientific; host or cells: Baculosomes
T1 sequence (P05177 2-516 limits assumed): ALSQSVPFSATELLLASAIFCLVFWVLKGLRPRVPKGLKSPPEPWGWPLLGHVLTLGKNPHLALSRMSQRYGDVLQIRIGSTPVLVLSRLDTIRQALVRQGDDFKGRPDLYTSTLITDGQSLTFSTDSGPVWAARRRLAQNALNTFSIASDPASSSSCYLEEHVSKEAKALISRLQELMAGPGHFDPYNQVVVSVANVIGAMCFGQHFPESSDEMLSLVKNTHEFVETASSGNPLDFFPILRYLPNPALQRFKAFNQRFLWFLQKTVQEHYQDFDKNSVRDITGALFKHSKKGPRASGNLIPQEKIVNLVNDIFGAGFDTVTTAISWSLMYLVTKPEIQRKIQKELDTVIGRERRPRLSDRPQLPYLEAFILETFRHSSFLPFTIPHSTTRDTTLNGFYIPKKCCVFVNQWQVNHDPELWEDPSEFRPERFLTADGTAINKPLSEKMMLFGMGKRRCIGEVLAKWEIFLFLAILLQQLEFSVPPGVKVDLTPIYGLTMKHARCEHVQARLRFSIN
Protocol: (§1) For this, the activity of CYP1A2, CYP2A6, CYP2B6, CYP2C9, CYP2C19, CYP2D6, and CYP3A4 was assessed after the administration of CKP-25 at 1 μM to determine (a) the oxidative (CYP-mediated) metabolic stability profile in question and (b) the enzyme metabolizing isoforms responsible (the test system consists of recombinant human CYP450 and CYP450 reductase; cytochrome b5 may also be present). Herein, no concentration-dependent effects were reported. […] No product inhibition or mechanism-based inactivation of the CYP450 isoenzymes in question was obtained. Test-compounds with poor solubility can show artificially low CYP450 inhibition and thus, chemical entities with potential drug–drug interaction toxicities may be overlooked.
(§2) Human cytochrome P450 (CYP450) isoenzymes were expressed in Baculosomes obtained from Thermo Fisher Scientific (Waltham, MA, USA). Reagents were handled and prepared following the manufacturer’s guidelines. Compound CKP-25 was evaluated at a concentration of 1 μM according to our established standard operating procedures and protocols as described previously.[127],[128] The enzymatic activity of various CYP450 isoforms (CYP1A2, CYP2A6, CYP2B6, CYP2C9, CYP2C19, CYP2D6, and CYP3A4) was measured, considering the kinetic model for each isoform. The reactions were conducted in triplicate at 20 °C. NADP+ (10 mM in 100 mM potassium phosphate, pH 8.0) was converted to NADPH using a regeneration system containing glucose-6-phosphate (333 mM) and glucose-6-phosphate dehydrogenase (30 U/mL in 100 mM potassium phosphate, pH 8.0). Upon the addition of the fluorescent substrate, signal monitoring was performed immediately (within 2 min) using appropriate excitation and emission wavelengths, recorded by an Agilent BioTek Lionheart FX (Winooski, VT, USA). CYP450 inhibition (%) was calculated based on the reaction rates (fluorescence intensity changes per unit time). In total, n = 60 meaurements per minute were recorded over a 60 min period. [drawing 2] where X, the rate observed in the presence of a test-compound; A, the rate observed in the presence of negative (solvent, DMSO) control.

CYP2C9 = molecular target: T2, CYP2C9 (Homo sapiens, UniProt P11712); assay: Isozyme-specific CYP450 inhibition; format: in vitro ADME; conditions: recombinant human CYP2C9 with CYP450 reductase (Baculosomes), probe fluorescent substrate (not named)
T2 construct: purchased Thermo Fisher Scientific; host or cells: Baculosomes
Protocol: as §1, §2

CYP2A6 = molecular target: T3, CYP2A6 (Homo sapiens, UniProt P11509); assay: Isozyme-specific CYP450 inhibition; format: in vitro ADME; conditions: recombinant human CYP2A6 with CYP450 reductase (Baculosomes), probe fluorescent substrate (not named)
T3 construct: purchased Thermo Fisher Scientific; host or cells: Baculosomes
T3 sequence (P11509 1-494): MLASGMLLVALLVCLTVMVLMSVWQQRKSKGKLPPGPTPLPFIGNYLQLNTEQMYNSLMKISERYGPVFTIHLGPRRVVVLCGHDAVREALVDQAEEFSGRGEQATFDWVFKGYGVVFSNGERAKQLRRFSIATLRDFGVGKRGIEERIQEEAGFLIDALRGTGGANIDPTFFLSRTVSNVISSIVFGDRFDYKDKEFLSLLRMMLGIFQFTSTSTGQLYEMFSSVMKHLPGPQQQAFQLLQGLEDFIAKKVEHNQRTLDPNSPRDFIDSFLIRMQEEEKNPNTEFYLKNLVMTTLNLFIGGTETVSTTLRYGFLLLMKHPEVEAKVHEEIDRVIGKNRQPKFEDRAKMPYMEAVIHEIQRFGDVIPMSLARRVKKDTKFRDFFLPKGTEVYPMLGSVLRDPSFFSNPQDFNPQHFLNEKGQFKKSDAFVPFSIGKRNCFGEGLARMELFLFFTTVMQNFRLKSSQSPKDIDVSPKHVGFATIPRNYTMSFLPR
Protocol: as §1, §2

CYP2C19 = molecular target: T4, CYP2C19 (Homo sapiens, UniProt P33261); assay: Isozyme-specific CYP450 inhibition; format: in vitro ADME; conditions: probe fluorescent substrate (not named)
T4 construct: purchased Thermo Fisher Scientific; host or cells: Baculosomes
Protocol: as §1, §2

CYP3A4 = molecular target: T5, CYP3A4 (Homo sapiens, UniProt P08684); assay: Isozyme-specific CYP450 inhibition; format: in vitro ADME; conditions: recombinant human CYP3A4 with CYP450 reductase (Baculosomes), probe fluorescent substrate (not named)
T5 construct: purchased Thermo Fisher Scientific; host or cells: Baculosomes
Protocol: as §1, §2

CYP2B6 = molecular target: T6, CYP2B6 (Homo sapiens, UniProt P20813); assay: Isozyme-specific CYP450 inhibition; format: in vitro ADME; conditions: recombinant human CYP2B6 with CYP450 reductase (Baculosomes), probe fluorescent substrate (not named)
T6 construct: purchased Thermo Fisher Scientific; host or cells: Baculosomes
T6 sequence (P20813 1-491): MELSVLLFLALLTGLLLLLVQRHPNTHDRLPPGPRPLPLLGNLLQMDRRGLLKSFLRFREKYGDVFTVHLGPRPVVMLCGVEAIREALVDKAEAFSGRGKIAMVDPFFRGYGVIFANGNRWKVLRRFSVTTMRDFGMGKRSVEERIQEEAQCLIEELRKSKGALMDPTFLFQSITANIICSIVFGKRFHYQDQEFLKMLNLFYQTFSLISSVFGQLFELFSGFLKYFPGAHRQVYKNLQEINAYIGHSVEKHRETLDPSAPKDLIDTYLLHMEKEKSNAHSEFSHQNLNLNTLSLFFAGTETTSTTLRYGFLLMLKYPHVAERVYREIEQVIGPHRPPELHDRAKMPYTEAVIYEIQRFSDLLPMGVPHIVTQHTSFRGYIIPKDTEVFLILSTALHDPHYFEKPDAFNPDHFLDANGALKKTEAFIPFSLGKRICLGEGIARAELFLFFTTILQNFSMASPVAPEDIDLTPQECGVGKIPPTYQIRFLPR
Protocol: as §1, §2

CYP2D6 = molecular target: T7, CYP2D6 (Homo sapiens, UniProt P10635); assay: Isozyme-specific CYP450 inhibition; format: in vitro ADME; conditions: recombinant human CYP2D6 with CYP450 reductase (Baculosomes), probe fluorescent substrate (not named)
T7 construct: purchased Thermo Fisher Scientific; host or cells: Baculosomes
Protocol: as §1, §2

T2 sequence (P11712 whole entry): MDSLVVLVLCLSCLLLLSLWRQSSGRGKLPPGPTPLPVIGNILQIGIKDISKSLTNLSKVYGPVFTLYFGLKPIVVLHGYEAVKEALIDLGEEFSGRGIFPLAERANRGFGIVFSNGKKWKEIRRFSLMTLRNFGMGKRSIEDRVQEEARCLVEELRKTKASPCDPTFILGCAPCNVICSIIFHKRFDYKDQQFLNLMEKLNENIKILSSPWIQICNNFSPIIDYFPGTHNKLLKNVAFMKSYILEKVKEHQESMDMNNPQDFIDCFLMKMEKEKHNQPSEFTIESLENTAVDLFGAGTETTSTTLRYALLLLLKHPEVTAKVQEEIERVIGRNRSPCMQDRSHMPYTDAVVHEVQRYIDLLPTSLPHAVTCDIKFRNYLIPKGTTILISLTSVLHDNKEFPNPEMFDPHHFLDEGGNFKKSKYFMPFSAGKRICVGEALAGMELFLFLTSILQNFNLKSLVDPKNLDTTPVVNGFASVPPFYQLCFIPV
T4 sequence (P33261 whole entry): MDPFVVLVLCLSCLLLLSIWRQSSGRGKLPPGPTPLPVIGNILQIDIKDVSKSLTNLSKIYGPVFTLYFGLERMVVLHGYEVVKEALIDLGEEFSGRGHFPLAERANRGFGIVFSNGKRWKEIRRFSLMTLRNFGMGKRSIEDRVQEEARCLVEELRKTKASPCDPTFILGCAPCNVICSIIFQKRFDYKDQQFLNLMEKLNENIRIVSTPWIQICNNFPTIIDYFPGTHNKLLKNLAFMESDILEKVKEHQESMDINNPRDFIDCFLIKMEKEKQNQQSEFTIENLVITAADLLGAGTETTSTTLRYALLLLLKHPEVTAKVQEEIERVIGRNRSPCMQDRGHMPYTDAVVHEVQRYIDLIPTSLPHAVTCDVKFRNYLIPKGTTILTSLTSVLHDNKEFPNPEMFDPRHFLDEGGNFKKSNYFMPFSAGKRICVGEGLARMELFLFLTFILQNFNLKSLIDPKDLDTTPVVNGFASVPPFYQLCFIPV
T5 sequence (P08684 2-503 limits assumed): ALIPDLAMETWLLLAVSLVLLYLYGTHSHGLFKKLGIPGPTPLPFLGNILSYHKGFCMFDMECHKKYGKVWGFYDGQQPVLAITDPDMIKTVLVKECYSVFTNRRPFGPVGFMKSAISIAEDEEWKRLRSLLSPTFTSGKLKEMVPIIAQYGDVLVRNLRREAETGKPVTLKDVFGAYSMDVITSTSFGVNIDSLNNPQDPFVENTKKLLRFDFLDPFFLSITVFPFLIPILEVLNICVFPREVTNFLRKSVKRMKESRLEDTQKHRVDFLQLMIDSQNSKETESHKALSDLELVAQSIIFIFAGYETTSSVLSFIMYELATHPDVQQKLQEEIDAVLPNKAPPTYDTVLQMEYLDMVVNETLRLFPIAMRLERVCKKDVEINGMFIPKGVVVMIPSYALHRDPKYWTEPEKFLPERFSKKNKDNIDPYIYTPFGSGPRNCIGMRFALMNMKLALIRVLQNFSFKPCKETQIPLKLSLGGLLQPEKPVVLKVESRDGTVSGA
T7 sequence (P10635 whole entry): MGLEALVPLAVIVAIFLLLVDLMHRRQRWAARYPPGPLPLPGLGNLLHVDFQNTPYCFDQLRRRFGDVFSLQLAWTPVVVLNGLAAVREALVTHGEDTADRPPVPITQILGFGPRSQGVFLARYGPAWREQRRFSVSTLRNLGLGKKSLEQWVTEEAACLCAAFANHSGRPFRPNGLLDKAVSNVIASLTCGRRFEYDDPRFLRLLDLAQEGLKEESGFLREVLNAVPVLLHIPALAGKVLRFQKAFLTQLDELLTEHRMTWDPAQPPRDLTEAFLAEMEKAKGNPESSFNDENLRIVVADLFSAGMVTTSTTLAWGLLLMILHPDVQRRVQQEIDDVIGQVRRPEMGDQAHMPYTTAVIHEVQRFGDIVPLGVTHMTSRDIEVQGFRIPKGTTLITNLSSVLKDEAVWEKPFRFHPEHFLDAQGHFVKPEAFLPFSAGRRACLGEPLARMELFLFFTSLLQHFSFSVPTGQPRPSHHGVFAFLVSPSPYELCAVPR

COc1cccc2c1ncn2Cc1ccc2ccccc2c1 [CKP-25, 4-Methoxy-1-(naphthalen-2-ylmethyl)-1H-benzo[d]imidazole]
effect on viral load in the cell culture supernatant (in words) (SARS-CoV-2): reduced the viral load | inhibition at 60 min, 1 µM (CYP1A2): 0% | inhibition at 60 min, 1 µM (CYP2C9): 11% | inhibition at 60 min, 1 µM (CYP2A6): 6% | inhibition at 60 min, 1 µM (CYP2C19): 20% | inhibition at 60 min, 1 µM (CYP3A4): 3% | inhibition at 60 min, 1 µM (CYP2B6): 0% | inhibition at 60 min, 1 µM (CYP2D6): 1%
